Results published in ChEMBL document CHEMBL1687942, “Benzimidazole inhibitors induce a DFG-out conformation of never in mitosis gene A-related kinase 2 (Nek2) without binding to the back pocket and reveal a nonlinear structure-activity relationship” (J Med Chem, 2011).
Activity calls are given as the source filed them. No cut-off for these calls is given here.

How the values were obtained:
[1] = target: T1, Serine/threonine-protein kinase PLK1 (Homo sapiens, UniProt P53350); test: Inhibition of polo-like kinase 1 activity
T1 sequence (P53350 whole entry): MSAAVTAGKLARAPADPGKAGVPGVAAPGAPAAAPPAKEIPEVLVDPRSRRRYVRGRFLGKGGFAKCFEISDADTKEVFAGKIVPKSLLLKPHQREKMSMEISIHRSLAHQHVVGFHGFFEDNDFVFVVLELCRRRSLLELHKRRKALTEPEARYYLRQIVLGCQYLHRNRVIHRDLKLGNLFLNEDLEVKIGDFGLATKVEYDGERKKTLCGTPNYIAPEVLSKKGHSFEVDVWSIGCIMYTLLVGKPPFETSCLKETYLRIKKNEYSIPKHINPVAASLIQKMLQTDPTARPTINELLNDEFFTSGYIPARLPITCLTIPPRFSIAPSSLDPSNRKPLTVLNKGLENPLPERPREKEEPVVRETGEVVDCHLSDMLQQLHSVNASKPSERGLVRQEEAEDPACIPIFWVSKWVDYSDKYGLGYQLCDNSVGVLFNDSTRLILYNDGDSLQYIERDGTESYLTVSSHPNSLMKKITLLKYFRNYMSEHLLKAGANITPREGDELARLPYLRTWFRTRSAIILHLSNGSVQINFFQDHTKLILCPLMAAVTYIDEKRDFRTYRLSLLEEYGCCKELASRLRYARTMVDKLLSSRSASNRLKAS

[2] = target: T2, Serine/threonine-protein kinase Nek2 (Homo sapiens, UniProt P51955)
T2 sequence (P51955 whole entry): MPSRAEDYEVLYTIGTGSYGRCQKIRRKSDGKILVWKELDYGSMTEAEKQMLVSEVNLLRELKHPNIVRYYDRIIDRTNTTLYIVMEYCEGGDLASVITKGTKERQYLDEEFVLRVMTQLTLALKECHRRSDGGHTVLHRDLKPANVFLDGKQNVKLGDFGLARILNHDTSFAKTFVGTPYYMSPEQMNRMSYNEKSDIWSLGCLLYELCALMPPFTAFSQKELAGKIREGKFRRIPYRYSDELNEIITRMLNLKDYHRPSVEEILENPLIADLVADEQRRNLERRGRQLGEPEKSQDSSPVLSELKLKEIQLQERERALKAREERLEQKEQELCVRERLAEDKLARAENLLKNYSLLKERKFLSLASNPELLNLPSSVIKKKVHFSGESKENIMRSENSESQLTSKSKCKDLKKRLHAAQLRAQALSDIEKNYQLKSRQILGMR

[3] = target: T1, Serine/threonine-protein kinase PLK1; settings: 200 uM
Description: Inhibition of polo-like kinase 1 activity at 200 uM

[4] = target: Tyrosine-protein kinase ABL1 (Mus musculus) (UniProt P00520); test: Inhibition of mouse Abl at 2 uM
Chain of Tyrosine-protein kinase ABL1 (Mus musculus) (P00520 whole entry): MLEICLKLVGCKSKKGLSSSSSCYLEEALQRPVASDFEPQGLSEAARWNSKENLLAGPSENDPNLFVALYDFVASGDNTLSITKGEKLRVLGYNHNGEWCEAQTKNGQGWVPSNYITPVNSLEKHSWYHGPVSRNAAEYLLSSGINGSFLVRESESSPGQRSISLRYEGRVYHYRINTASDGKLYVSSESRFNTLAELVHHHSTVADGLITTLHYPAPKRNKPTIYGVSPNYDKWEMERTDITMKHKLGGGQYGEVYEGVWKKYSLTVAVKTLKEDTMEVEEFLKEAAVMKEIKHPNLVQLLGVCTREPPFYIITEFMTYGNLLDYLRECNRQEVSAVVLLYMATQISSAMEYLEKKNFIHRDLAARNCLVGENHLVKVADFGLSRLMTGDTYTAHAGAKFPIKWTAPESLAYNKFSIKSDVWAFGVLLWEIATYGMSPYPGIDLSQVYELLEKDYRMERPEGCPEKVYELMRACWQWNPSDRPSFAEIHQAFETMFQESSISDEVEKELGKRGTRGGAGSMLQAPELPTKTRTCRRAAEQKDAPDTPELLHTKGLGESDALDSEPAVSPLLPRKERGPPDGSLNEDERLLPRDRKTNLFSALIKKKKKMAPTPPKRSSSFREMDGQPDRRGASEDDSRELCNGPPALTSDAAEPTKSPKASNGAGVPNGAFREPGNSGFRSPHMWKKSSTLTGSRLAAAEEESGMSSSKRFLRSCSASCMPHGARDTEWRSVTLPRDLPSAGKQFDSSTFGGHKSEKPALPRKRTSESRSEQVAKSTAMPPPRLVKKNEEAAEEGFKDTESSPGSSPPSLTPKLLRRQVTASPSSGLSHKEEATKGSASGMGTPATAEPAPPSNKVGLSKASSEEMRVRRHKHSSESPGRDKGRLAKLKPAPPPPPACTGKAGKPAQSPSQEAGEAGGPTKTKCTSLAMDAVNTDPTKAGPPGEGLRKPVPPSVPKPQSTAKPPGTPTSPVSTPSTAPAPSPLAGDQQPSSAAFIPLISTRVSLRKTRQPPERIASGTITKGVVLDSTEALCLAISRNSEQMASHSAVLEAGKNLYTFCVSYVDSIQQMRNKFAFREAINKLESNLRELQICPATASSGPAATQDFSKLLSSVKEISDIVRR

[5] = target: T3, Serine/threonine-protein kinase Nek2 (Homo sapiens) (UniProt P51955); test: Inhibition of NEK2 at 200 uM
T3 sequence (whole entry): T2 sequence (P51955 whole entry)

[6] = target: T1, Serine/threonine-protein kinase PLK1; test: Inhibition of polo-like kinase 1 activity at 100 uM
[7] = Apparent permeability of the compound by PAMPA at pH 7.4
[8] = target: T2, Serine/threonine-protein kinase Nek2; test: Inhibition of NEK2 autophosphorylation preincubated with compound by DELFIA assay
[9] = target: T2, Serine/threonine-protein kinase Nek2; test: Inhibition of NEK2 assessed as inhibition of substrate phosphorylation preincubated for 5 mins before addition of substrate by DELFIA assay

Row | IC50 [1] | IC50 [2] | Structure (SMILES) | other results
1 | 0.069 µM | 5.43 µM | CN1CCC(Oc2ccc3ncn(-c4cc(OCc5ccccc5)c(C(N)=O)s4)c3c2)CC1 | 
2 |  |  | C[C@H](Oc1cc(-n2cnc3cc(OC4CCN(C)CC4)ccc32)ccc1C(N)=O)c1ccccc1C(F)(F)F | inhibition [3]: inactive
3 | < 0.009 µM |  | CN1CCC(Oc2ccc3ncn(-c4cc(OCc5ccccc5C(F)(F)F)c(C(N)=O)s4)c3c2)CC1 | 
4 | 87.9 µM |  | CC(Oc1cc(-n2cnc3cc(OC4CCN(C)CC4)ccc32)ccc1C(N)=O)c1ccccc1C(F)(F)F (racemic) | inhibition [4]: Active
5 |  |  | CC(Oc1cc(-n2cnc3cc(OC4CCCCC4)ccc32)ccc1C(N)=O)c1ccccc1C(F)(F)F (racemic) | inhibition [5]: inactive; inhibition [6]: inactive
6 | 5.31 µM | 86 µM | COc1cc(-n2cnc3ccccc32)sc1C(N)=O | 
7 | 51.3 µM |  | C[C@@H](Oc1cc(-n2cnc3cc(OC4CCN(C)CC4)ccc32)ccc1C(N)=O)c1ccccc1C(F)(F)F | Papp [7]: 334 nm/s
8 | 1.33 µM | 64.4 µM | COc1cc(-n2cnc3ccc(OC4CCN(C)CC4)cc32)sc1C(N)=O | 
9 | 0.19 µM | 0.66 µM | CC(Oc1cc(-n2cnc3ccc(OC4CCN(C)CC4)cc32)ccc1C(N)=O)c1ccccc1C(F)(F)F (racemic) | 
10 | 0.066 µM | 6.57 µM | CC(Oc1cc(-n2cnc3ccc(OC4CCN(C)CC4)cc32)sc1C(N)=O)c1ccccc1 (racemic) | 
11 | < 0.009 µM | > 50 µM | CC(Oc1cc(-n2cnc3ccccc32)sc1C(N)=O)c1ccccc1C(F)(F)F (racemic) | 
12 | 15.2 µM | 0.38 µM | CC(Oc1cc(-n2cnc3cc(OCCCN(C)C)ccc32)ccc1C(N)=O)c1ccccc1C(F)(F)F (racemic) | 
13 |  | 2.56 µM | CC(Oc1cc(-n2cnc3cc(OC4CCN(C5CC5)CC4)ccc32)ccc1C(N)=O)c1ccccc1C(F)(F)F (racemic) | inhibition [6]: inactive
14 |  |  | CC(Oc1cc(-n2cnc3ccc(OC4CCN(C)CC4)cc32)sc1C(N)=O)c1ccccc1C(F)(F)F (racemic) | IC50 [8]: 0.05 µM; IC50 [9]: 0.2 µM
